Measured values as given in patent publication US7414068B2, “Benzopyran derivatives substituted with secondary amines including tetrazole, method for the preparation thereof and pharmaceutical compositions containing them” (Dongbu Hannong Chemical Co., Ltd., priority 2002, dated 2008).

How the values were obtained:
[1] = test system: isolated ischemic rat heart; assay: Cardioprotective effect in ischemic heart models of rats (Langendorff); conditions: 10 μM
Method in brief: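 Langendorff-perfused male rat hearts (Krebs-Henseleit, 85 mmHg, 37 °C) pretreated 10 min with compound or vehicle (0.04% DMSO), then 30 min global ischemia and 30 min reperfusion. Read-outs: LVDP, HR, CF, rate-pressure product, time to contracture (first 5 mmHg EDP rise), LDH release.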

retina ganglion cell = assay: Protective effect on neuronal cells damage by axotomy of optic nerve; format: in vivo, rat; conditions: 20 μM, injected vitreously, after axotomy of optic nerve
Method: Test compounds were dissolved in DMSO to prepare stock solution (100 mM), which was diluted with physiological saline to the 20 μM. 10 μl of […] was injected vitreously.
Adult rats were anesthetized with chloral hydrate (400 mg/Kg), then optic nerve was exposed by bulbar conjunctiva. Thereafter, nerve corresponding to 0.5 mm or 3 mm from eye ball was excided, respectively. Or through upper eyelid cutaneous amputation was accomplished, then part of lacrimal gland was removed. […] The optic nerve was excised about 5 mm back from eye ball. Blood vessels of retina supplying blood to retina was not impaired. Condition of blood vessels of retina was checked with funduscope. Fluorogold (Fluorochrome Inc. 5% in PBS (phosphate buffered solution) was administrated to Half of test group, in the retrograde after axotomy of optic nerve. To investigate cell survival of the ganglion after axotomy, eyes was removed from rats, then retina was isolated in 3 days, 1 week, 2 weeks, 4 weeks, 2 months, 4 months, and 6 months. The isolated retina was investigated by transmission electron microscope. For quantitative analysis, at the same time tissue of retina was prepared. The prepared tissue was investigated by immunochemical dyeing or fluorescent microscope to which 530˜560 nm filter was installed.

isolated rat aorta = assay: Vasodilating effect on blood vessel excised from rats (methoxamine-constricted aorta); conditions: isolated rat aorta constricted with methoxamine (3 μM); read-out: Concentration for inhibition of constriction induced by methoxamine in rat arota (IC50)
Method in brief: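 Endothelium-denuded rat thoracic aortic rings (3 mm) in Krebs-Henseleit buffer, 37 °C, carbogen, 2 g resting tension, primed twice with 10^−5 M phenylephrine. After maximal contraction with 3×10^−6 M methoxamine, compounds added cumulatively at 1, 3, 10, 30 μM. IC50 = concentration giving 50% relaxation of maximal constriction, by linear regression.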

## COC(OC)[C@@]1(C)Oc2ccc(N)cc2[C@H](N(Cc2nnn(C)n2)c2ccc(Cl)cc2)[C@H]1O [Example 11, (2S,3R,4S)-6-amino-4-[N-(4-chlorophenyl)-N-(2-methyl-2H-tetrazol-5-ylmethyl)amino]-3-hydroxy-2-methyl-2-dimethoxymethyl-3,4-dihydro-2H-1-benzopyran]
[1]; after 30 min global ischemia and reperfusion
  EDP (mmHg): 47.6 mmHg
[1]; reperfusion LDH release
  LDH (u/g): 16.5 u/g
[1]; reperfusion, % of pre-treatment DP
  LVDP X HR (%): 24.8%
[1]; time to contracture during global ischemia
  TTC: 19.9 min
Retina ganglion cell
  Survival of the ganglion cell(%): 43%
Retina ganglion cell; listed as compound of formula 11
  Survival of the ganglion cell(%): 43%
Isolated rat aorta
  IC50: > 30 µM
